Measurements reported in patent US12702715B2, “Targeted RNA degradation allows precision repurposing of protein-targeted small molecule medicines to RNA” (University of Florida Research Foundation, Incorporated, priority 2020, dated 2026).

Key:
pre-miR-21 WT RNA = assay: In vitro Chem-CLIP and C-Chem-CLIP, pre-miR-21 WT; assay type: binding, human
Protocol: In Vitro Chemical Cross-linking and Isolation by Pull Down (Chem-CLIP) and Competitive Chem-CLIP (C-Chem-CLIP). Growth medium [RMPI 1640 medium with L-glutamine & 25 mM HEPES (Corning)] was inactivated by heating at 95° C. to for 15 min and slowly cooling to room temperature at benchtop. Pre-miR-21 labeled with ^32P at the 5′-end (~10,000 counts) was folded in growth medium by heating at 95° C. for 1 min and slowly cooling to room temperature. To the samples was added Chem-CLIP probe 4 (1, 5, 20 or 100 μM) or negative control probe 5 (1, 5, 20 or 100 μM), and the mixtures were incubated at 37° C. for 1 h. The samples were then cross-linked by irradiation with 365 nm light for 10 min. The Chem-CLIP probe 4 or control probe 5, whether or not cross-linked to the RNA, was then clicked to disulfide biotin azide (10 mM in DMSO; 10 μL per sample; 1168-10, Click Chemistry Tools) by incubating in a solution containing 1×HEPES buffer (25 mM, pH 7), sodium ascorbate (10 μL/sample, 250 mM in H2O), CuSO4 (10 μL/sample, 50 mM in H2O), THPTA (10 μL/sample, 50 mM in H2O) for 2 h at 37° C. […] The radioactive signal from bound RNAs (on the beads) and unbound RNAs (from the wash steps) were measured by using a Beckman Coulter LS6500 Liquid Scintillation Counter. Enrichment of pre-miR-21 was calculated as previously described^6. […]

pre-miR-21 = assay: Cellular Chem-CLIP and C-Chem-CLIP to study occupancy of pre-miR-21; assay type: cell-based, human
Protocol: Cellular Chem-CLIP and C-Chem-CLIP to Study Occupancy of pre-miR-2L MDA-MB-231 cells in 100 mm dishes (~90% confluency) were treated with 4 or 5 for 6 h at 37° C. Then the cells were washed with 1×DPBS and cross-linked under 365 nm light for 10 min in ice cold 1×DPBS. The cells were harvested by scraping and pelleted by centrifugation. Total RNA was extracted by using the miRNeasy mini kit (Qiagen) per the manufacturer's protocol. Approximately 50 μg of total RNA was clicked to disulfide biotin azide as described in the “In Vitro Chem-CLIP and Competitive Chem-CLIP (C-Chem-CLIP)” section. Streptavidin beads (10 μL) were added, and the samples were incubated, with shaking, for 2 h at 37° C. The beads were then washed with 1× Wash Buffer (10 mM Tris-HCl, pH 7.0, 4 M NaCl, 1 mM EDTA) three times and then once with nanopure water. Bound RNAs were eluted from the beads by incubating with 200 μL of 1:1 TCEP (200 mM) pre-reduced with 600 mM of K2CO3 for 30 min at 37° C. The reaction was quenched by treatment with an equal volume of 400 mM of iodoacetamide for 30 min at room temperature. The supernatant was collected, and the beads were washed once with nanopure water: the water was added to the eluant. The combined eluant was cleaned up using RNAClean XP beads according to the manufacturer's protocol. The obtained RNA was then subjected to RT-qPCR. Enrichment of pre-miR-21 was calculated as previously described^6. Cellular C-Chem-CLIP was completed by pre-treating with 1 (1 or 5 μM) or 3 (1 or 5 μM) for 6 h, followed by dosing with 4 (5 μM) for 6 h. Sample preparation and data analysis were completed as described above for cellular Chem-CLIP studies.

MDA-MB-231-Luc cells = assay type: in vivo, mouse; details: for pre-miR-21 levels in lung tissue: FISH; for pre-miR-21 levels in lung tissue / ERK levels in lung tissue / PDCD4 expression in lung tissue: 1 assessed after 12 days of dosing; for ERK levels in lung tissue / PDCD4 expression in lung tissue: IHC
From the text: In Vivo Studies to Assess Metastasis of Breast Cancer to the Lung. Female NOD/SCID mice (n=10; 5-7 weeks) were used for in vivo breast cancer metastasis studies as previously reported^6. Briefly, mice purchased from Jackson Laboratory were intravenously injected (tail vein) with MDA-MB-231-Luc cells (0.8×10^6 cells/mice). Luciferase activity was monitored every other day to determine when to initiate treatment [averaged luciferase signal from mice is ten times higher than the background as measured by LagoX (Spectral Instruments)]. After 5 days, the mice were split into three groups, with each group having the same luciferase signal. […]. After 30 days, lungs were harvested and immediately fixed in Bouin's solution (Sigma, HT10132-1L) for 24 h to image nodules. After counting the nodules, the fixed lungs were washed in 60 mL of 10% formalin solution four times over 48 h to remove Bouin's solution. Paraffin-embedded sections of the lungs were then generated by the Histology Core at Scripps Research Florida for further staining.
Lung Tissue Histology. All histological analyses were performed as previously reported^6. The slides were stained on a Leica BondMax Immunostaining platform by using a DAB refine kit. H&E staining and PDCD4, pERK and ERK IHC were performed by the Histology Core at Scripps Research Florida. All antibodies were used at a 1:100 dilution: anti-PDCD4 (Abcam, ab51495); anti-pERK (Cell Signaling Technology, 4370S); and ERK (Cell Signaling Technology, 9102S). The primary antibodies were detected using a DAB Substrate Kit (Vector Laboratories, Inc.) per the manufacturer's protocol.
To visualize miR-21 and pre-miR-21 by fluorescence in situ hybridization (FISH), the paraffin-embedded sections were incubated at 56° C. overnight and cleaned with xylene three times, followed by washing with serially diluted concentrations of ethanol (100%, 95%, 90%, and 85%). The slides were then washed with MilliQ water three times and immersed in 0.3% (v/v) H2O2 for 30 min at room temperature. The slides were then washed with MilliQ water three times and digested with proteinase K (QIAGEN) at 37° C. for 15 min. After washing three times with MilliQ water, the slides were dehydrated with 95% ethanol and air-dried completely at room temperature. The slides were then hybridized with FITC-labeled LNA probes^6 complementary to mature ([…]*/36-FAM SEQ ID NO: 16) or pre-miR-21 ([…]/36-FAM SEQ ID NO: 17) at […] overnight. After hybridization, the slides were washed with 2×SSC (saline sodium citrate buffer) three times and then 1×DPBS three times, all at room temperature. The slides were then incubated with an anti-FITC horseradish peroxidase-conjugated antibody (Abcam) for 2 h at room temperature. The slides were washed with 1×TBST three times.
After staining of interest was completed, the slides were dehydrated, cover-slipped with Cytoseal 60, and imaged with a Leica DM13000 B upright fluorescent microscope.

| SMILES | enrichment of 32P-labeled pre-miR-21 WT (pre-miR-21 WT RNA; 1, 5, 20 or 100 μM) | reaction with / pull-down of pre-miR-21 in cells (pre-miR-21; MDA-MB-231) | pre-miR-21 levels in lung tissue (MDA-MB-231-Luc cells) | ERK levels in lung tissue (MDA-MB-231-Luc cells) | PDCD4 expression in lung tissue (MDA-MB-231-Luc cells) | competition of enrichment of pre-miR-21 by 4 (pre-miR-21 WT RNA; in vitro C-Chem-CLIP) | competition of pull-down of pre-miR-21 with 4 (pre-miR-21; increasing concentrations, 4 constant) | weight change of NOD/Scid mice (MDA-MB-231-Luc cells; 56 mg/kg q.o.d., over 38 days) | hematoxylin and eosin (HE) staining of lung (MDA-MB-231-Luc cells; mouse, in vivo) |
| --- | --- | --- | --- | --- | --- | --- | --- | --- | --- |
| C#CCCC1(CCC(=O)NCCN2CCN(c3ccc4[nH]c(-c5c(N)c6c(F)cccc6[nH]c5=O)nc4c3)CC2)N=N1 [Compound 4] | dose-dependently enriched | reacted with pre-miR-21 | – | – | – | – | – | – | – |
| CN1CCN(c2ccc3nc(-c4c(N)c5c(F)cccc5[nH]c4=O)[nH]c3c2)CC1 [Compound 1, Dovitinib, reference compound] | – | – | did not affect | did not affect | did not affect | competed off | similarly diminished | – | – |
| CCOC(=O)C1=C(Nc2ccccc2)S/C(=C\c2ccc(OCCOCCOCCOCCNC(=O)NCCN3CCN(c4ccc5[nH]c(-c6c(N)c7c(F)cccc7[nH]c6=O)nc5c4)CC3)c(O)c2)C1=O [Compound 2, Ribotac-Dovitinib] | – | – | significantly diminished | had no effect | derepressed | – | – | did not cause significant changes in weight | decrease |
